According to paper PMC3340383, “Synthesis and Evaluation of a Series of 2-Substituted-5-Thiopropylpiperazine (Piperidine)-1,3,4-Oxadiazoles Derivatives as Atypical Antipsychotics” (PLoS ONE, 2012):
Where two headings read alike, the source gives them in different places.

Experiments:
[1] = target: T1, dopamine D2 receptor (Rattus norvegicus, UniProt P61169); assay: D2 dopaminergic binding assay ([3H]spiperone, rat striatum); conditions: read-out: Ki±SEM, D2
T1 construct: Rat striatum was homogenized in 20 volumes of ice-cold 50 mM Tris-HCl buffer; from tissue; host or cells: rat striatum
Experimental: (§1) All the new compounds were dissolved in 5% DMSO. The following specific radioligands and tissue sources were used: (a) serotonin 5-HT1A receptor, [^3H]8-OH-DPAT, rat brain cortex; (b) serotonin 5-HT2A receptor, [^3H]ketanserin, rat brain cortex; (c) serotonin 5-HT2C receptor, [^3H]mesulergine, rat brain cortex; (d) dopamine D2 receptor, [^3H]spiperone, rat striatum; (e) dopamine D3 receptor, [^3H]spiperone, rat olfactory tubercle (f) histamine H1 receptor, [^3H] pyrilamine, guinea pig cerebellum.
(§2) Total binding was determined in the absence of no-specific binding and compounds. Specific binding was determined in the presence of compounds. Non-specific binding was determined as the difference between total and specific binding.
(§3) Percentage of inhibition (%) = (total binding − specific binding)×100%/(total binding − nonspecific binding).
(§4) Ki values were calculated based on the Cheng and Prussoff equation: Ki = IC50/(1+C/Kd) where C represents the concentration of the hot ligand used and Kd its receptor dissociation constant were calculated for each labeled ligand. Mean Ki values and SEM were reported for at least three independent experiments.
Rat striatum was homogenized in 20 volumes of ice-cold 50 mM Tris-HCl buffer (pH 7.7) using an ULTRA TURAX homogeniser, and centrifuged twice for 10 min at 48,000 g with resuspension of the pellet in fresh buffer. The final pellet was resuspended in 50 mM ice-cold Tris-HCl containing 120 mM NaCl, 5 mM KCl, 2 mM CaCl2, 1 mM MgCl2, 0.1% ascorbic acid and 5 µM pargyline.
Total binding each assay tube was added 900 µL of the tissue suspension, 50 µL of 0.5 nM [^3H]spiperone (16.2 Ci/mmol; Perkin Elmer Life Sciences, Boston, MA, USA), 50 µL Tris-HCl buffer containing 120 mM NaCl, 5 mM KCl, 2 mM CaCl2, 1 mM MgCl2, 0.1% ascorbic acid and 5 µM pargyline.
Non-specific binding each assay tube was added 900 µL of the tissue suspension, 50 µL of 0.5 nM [^3H]spiperone, 50 µL of 10 µM (+)-butaclamol.
Specific binding each assay tube was added 900 µL of the tissue suspension, 50 µL of 0.5 nM [^3H]spiperone, 50 µL of new compounds or reference drug.
(§5) The incubation was followed by a rapid vacuum filtration through Whatman GF/B glass filters, and the filtrates were washed twice with 5 mL cold buffer and transferred to scintillation vials. Scintillation fluid (3.0 mL) was added and the radioactivity bound was measured using a Beckman LS 6500 liquid scintillation counter.

[2] = target: T2, serotonin 5-HT1A receptor (Rattus norvegicus, UniProt P19327); assay: 5-HT1A binding assay ([3H]8-OH-DPAT, rat brain cortex); conditions: read-out: Ki±SEM, 5HT1A
T2 construct: Rat cerebral cortex was homogenized in 20 volumes of ice-cold Tris-HCl buffer; from tissue; host or cells: rat brain (cerebral) cortex
T2 sequence (P19327 1-422): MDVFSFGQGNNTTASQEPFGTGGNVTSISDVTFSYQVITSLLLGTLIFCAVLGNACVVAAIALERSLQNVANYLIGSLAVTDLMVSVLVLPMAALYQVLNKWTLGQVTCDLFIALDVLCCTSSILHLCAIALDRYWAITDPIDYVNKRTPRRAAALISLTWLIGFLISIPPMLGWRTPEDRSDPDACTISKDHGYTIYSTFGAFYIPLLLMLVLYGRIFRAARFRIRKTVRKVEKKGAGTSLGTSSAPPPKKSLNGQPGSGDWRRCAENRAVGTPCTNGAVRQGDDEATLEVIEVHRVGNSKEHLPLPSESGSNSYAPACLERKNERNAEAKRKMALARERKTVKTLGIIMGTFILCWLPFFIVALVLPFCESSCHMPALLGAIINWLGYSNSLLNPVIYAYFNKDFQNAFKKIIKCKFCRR
Experimental: as §1, §2, §3, §4
Rat cerebral cortex was homogenized in 20 volumes of ice-cold Tris-HCl buffer (50 mM, pH 7.7) using an ULTRA TURAX homogeniser, and was then centrifuged at 32000 g for 10 min. […] The final pellet was resuspended in Tris-HCl buffer containing 10 µM Pargyline, 4 mM CaCl2 and 0.1% ascorbic acid.
Total binding each assay tube was added 900 µL of the tissue suspension, 50 µL of 0.5 nM [^3H]8-OH-DPAT (187.4 Ci/mmol, Perkin Elmer Life Sciences, Boston, MA, USA), 50 µL Tris-HCl buffer containing 10 µM Pargyline, 4 mM CaCl2 and 0.1% ascorbic acid.
Non-specific binding each assay tube was added 900 µL of the tissue suspension, 50 µL of 0.5 nM [^3H]8-OH-DPAT, 50 µL of 10 µM serotonin.
Specific binding each assay tube was added 900 µL of the tissue suspension, 50 µL of 0.5 nM [^3H]8-OH-DPAT, 50 µL of new compounds or reference drug.
as §5, with “5mL” for “5 mL”

[3] = target: T3, serotonin 5-HT2A receptor (Rattus norvegicus, UniProt P14842); assay: 5-HT2A binding assay ([3H]ketanserin, rat brain cortex); conditions: read-out: Ki±SEM, 5HT2A
T3 construct: Rat cerebral cortex was homogenized in 20 volumes of ice-cold Tris-HCl buffer; from tissue; host or cells: rat brain (cerebral) cortex
Experimental: as §1, §2, §3, §4
Rat cerebral cortex was homogenized in 20 volumes of ice-cold Tris-HCl buffer (50 mM, pH 7.7) using an ULTRA TURAX homogeniser, and centrifuged at 32000 g for 20 min. The resulting pellet was resuspended in the same quantity of the buffer centrifuged for 20 min. The final pellet was resuspended in 50 volumes of the Tris-HCl buffer.
Total binding each assay tube was added 900 µL of the tissue suspension, 50 µL of 0.6 nM [^3H]ketanserin (60.0 Ci/mmol, Perkin Elmer Life Sciences, Boston, MA, USA), 50 µL Tris-HCl buffer.
Non-specific binding each assay tube was added 900 µL of the tissue suspension, 50 µL of 0.6 nM [^3H]ketanserin, 50 µL of 10 µM methisergide.
Specific binding each assay tube was added 900 µL of the tissue suspension, 50 µL of 0.6 nM [^3H]ketanserin, […] of new compounds or reference drug.
as §5

[4] = [3H]spiperone, rat striatum, mean of three experiments, >10000 marked b: Ki not calculated, inhibition at 10 µM too low
[5] = [3H]8-OH-DPAT, rat brain cortex, mean of three experiments, >10000 marked b: Ki not calculated, inhibition at 10 µM too low
[6] = [3H]ketanserin, rat brain cortex, mean of three experiments, >10000 marked b: Ki not calculated, inhibition at 10 µM too low

T1 sequence (P61169 whole entry): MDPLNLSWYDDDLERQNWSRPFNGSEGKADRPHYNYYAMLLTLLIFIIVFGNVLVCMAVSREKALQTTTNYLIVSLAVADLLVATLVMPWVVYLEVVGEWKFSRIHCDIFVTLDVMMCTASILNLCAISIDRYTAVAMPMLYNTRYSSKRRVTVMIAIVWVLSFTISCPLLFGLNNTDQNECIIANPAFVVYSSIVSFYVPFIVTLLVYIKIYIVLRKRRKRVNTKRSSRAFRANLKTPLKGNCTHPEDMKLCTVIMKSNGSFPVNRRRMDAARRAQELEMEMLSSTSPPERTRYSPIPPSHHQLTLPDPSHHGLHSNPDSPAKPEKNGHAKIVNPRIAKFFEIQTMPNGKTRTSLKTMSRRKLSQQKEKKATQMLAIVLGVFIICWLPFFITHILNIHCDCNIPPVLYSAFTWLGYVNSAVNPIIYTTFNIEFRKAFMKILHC
T3 sequence (P14842 whole entry): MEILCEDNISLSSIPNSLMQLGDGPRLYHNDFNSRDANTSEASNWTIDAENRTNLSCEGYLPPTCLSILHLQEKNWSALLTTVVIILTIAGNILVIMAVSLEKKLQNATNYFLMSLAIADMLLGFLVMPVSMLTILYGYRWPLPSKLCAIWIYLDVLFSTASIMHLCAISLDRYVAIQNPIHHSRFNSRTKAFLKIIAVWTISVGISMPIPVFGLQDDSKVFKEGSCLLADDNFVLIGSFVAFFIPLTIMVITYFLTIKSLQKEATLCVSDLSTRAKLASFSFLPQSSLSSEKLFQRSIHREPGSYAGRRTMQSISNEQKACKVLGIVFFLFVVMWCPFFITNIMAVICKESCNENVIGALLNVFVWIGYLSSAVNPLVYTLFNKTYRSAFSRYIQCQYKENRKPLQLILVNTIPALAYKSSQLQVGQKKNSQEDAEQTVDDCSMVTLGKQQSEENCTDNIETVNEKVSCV

Compound | Ki [1] | Ki [2] | melting point | Ki [3] | Ki [1, 4] | Ki [2, 5] | Ki [3, 6]
Cc1cccc(N2CCN(CCCSc3nnc(-c4ccccc4)o3)CC2)c1C [Compound 7, 2-((3-(4-(2,3-dimethylphenyl)piperazin-1-yl)propyl)thio)-5-phenyl-1,3,4-oxadiazole] | > 10 µM | > 10 µM | 86 to 88 °C | 0.374 ± 0.033 µM |  |  | 
COc1ccccc1N1CCN(CCCSc2nnc(-c3ccccc3)o2)CC1 [Compound 8, 2-((3-(4-(2-methoxyphenyl)piperazin-1-yl)propyl)thio)-5-phenyl-1,3,4-oxadiazole] | > 10 µM | > 10 µM |  | > 10 µM |  |  | 
Clc1cccc(N2CCN(CCCSc3nnc(-c4ccccc4)o3)CC2)c1Cl [Compound 9, 2-((3-(4-(2,3-dichlorophenyl)piperazin-1-yl)propyl)thio)-5-phenyl-1,3,4-oxadiazole] | > 10 µM | > 10 µM | 82 to 84 °C | > 10 µM |  |  | 
FC(F)(F)c1cccc(N2CCN(CCCSc3nnc(-c4ccccc4)o3)CC2)c1 [Compound 10, 2-((3-(4-(3-(trifluoromethyl)phenyl)piperazin-1-yl)propyl)thio)-5-phenyl-1,3,4-oxadiazole] | > 10 µM | > 10 µM | 68 to 69 °C | > 10 µM |  |  | 
c1ccc(-c2nnc(SCCCN3CCN(c4nsc5ccccc45)CC3)o2)cc1 [Compound 11, 2-((3-(4-(benzo[d]isothiazol-3-yl)piperazin-1-yl)propyl)thio)-5-phenyl-1,3,4-oxadiazole] | 2.57 ± 0.321 µM | 0.019 ± 0.0023 µM | 69 to 71 °C | 0.0614 ± 0.0058 µM |  |  | 
Fc1ccc2c(C3CCN(CCCSc4nnc(-c5ccccc5)o4)CC3)noc2c1 [Compound 12, 2-(3-(4-(6-fluorobenzo[d]isoxazol-3-yl)piperidin-1-yl)propylthio)-5-phenyl-1,3,4-oxadiazole] | 2.97 ± 0.381 µM | 0.0189 ± 0.0016 µM | 106 to 107 °C | 0.0113 ± 0.0012 µM |  |  | 
COc1ccc(-c2nnc(SCCCN3CCN(c4nsc5ccccc45)CC3)o2)cc1 [Compound 13, 2-((3-(4-(benzo[d]isothiazol-3-yl)piperazin-1-yl)propyl)thio)-5-(4-methoxyphenyl)-1,3,4-oxadiazole] |  |  |  |  | 0.0967 ± 0.0095 µM | > 10 µM | 0.0172 ± 0.0016 µM
Clc1ccc(-c2nnc(SCCCN3CCN(c4nsc5ccccc45)CC3)o2)cc1 [Compound 15, 2-((3-(4-(benzo[d]isothiazol-3-yl)piperazin-1-yl)propyl)thio)-5-(4-chlorophenyl)-1,3,4-oxadiazole] |  |  |  |  | 0.126 ± 0.0135 µM | 0.0142 ± 0.0013 µM | 0.0272 ± 0.0028 µM
FC(F)(F)c1ccc(-c2nnc(SCCCN3CCN(c4nsc5ccccc45)CC3)o2)cc1 [Compound 17, 2-((3-(4-(benzo[d]isothiazol-3-yl)piperazin-1-yl)propyl)thio)-5-(4-(trifluoromethyl)phenyl)-1,3,4-oxadiazole] |  |  |  |  | 0.487 ± 0.0463 µM | > 10 µM | 0.0508 ± 0.0053 µM
Fc1ccc2c(C3CCN(CCCSc4nnc(-c5ccc(C(F)(F)F)cc5)o4)CC3)noc2c1 [Compound 18, 2-(3-(4-(6-fluorobenzo[d]isoxazol-3-yl)piperidin-1-yl)propylthio)-5-(4-(trifluoromethyl)phenyl)-1,3,4-oxadiazole] | 0.0945 ± 0.0089 µM | 0.051 ± 0.0049 µM | 122 to 124 °C | 0.0247 ± 0.0028 µM |  |  | 
Fc1ccc(-c2nnc(SCCCN3CCN(c4nsc5ccccc45)CC3)o2)cc1 [Compound 19, 2-(3-(4-(benzo[d]isothiazol-3-yl)piperazin-1-yl)propylthio)-5-(4-fluorophenyl)-1,3,4-oxadiazole] |  |  |  |  | > 10 µM | > 10 µM | > 10 µM
Fc1ccc(-c2nnc(SCCCN3CCC(c4noc5cc(F)ccc45)CC3)o2)cc1 [Compound 20, 2-(3-(4-(6-fluorobenzo[d]isoxazol-3-yl)piperidin-1-yl)propylthio)-5-(4-fluorophenyl)-1,3,4-oxadiazole] |  |  |  |  | 0.125 ± 0.0124 µM | 0.0148 ± 0.0015 µM | 0.0158 ± 0.0013 µM
c1ccc2c(-c3nnc(SCCCN4CCN(c5nsc6ccccc56)CC4)o3)cccc2c1 [Compound 21, 2-(3-(4-(benzo[d]isothiazol-3-yl)piperazin-1-yl)propylthio)-5-(naphthalen-1-yl)-1,3,4-oxadiazole] |  |  |  |  | 0.138 ± 0.0136 µM | 0.346 ± 0.0359 µM | 0.114 ± 0.0121 µM
c1csc(-c2nnc(SCCCN3CCN(c4nsc5ccccc45)CC3)o2)c1 [Compound 23, 2-(3-(4-(benzo[d]isothiazol-3-yl)piperazin-1-yl)propylthio)-5-(thiophen-2-yl)-1,3,4-oxadiazole] |  |  |  |  | > 10 µM | 0.45 ± 0.0498 µM | 0.0541 ± 0.0069 µM
Fc1ccc2c(C3CCN(CCCSc4nnc(-c5cccs5)o4)CC3)noc2c1 [Compound 24, 2-(3-(4-(6-fluorobenzo[d]isoxazol-3-yl)piperidin-1-yl)propylthio)-5-(thiophen-2-yl)-1,3,4-oxadiazole] |  |  |  |  | 0.091 ± 0.0112 µM | 0.0966 ± 0.0103 µM | 0.0503 ± 0.0065 µM
c1ccc2c(N3CCN(CCCSc4nnc(-c5ccncc5)o4)CC3)nsc2c1 [Compound 25, 2-(3-(4-(benzo[d]isothiazol-3-yl)piperazin-1-yl)propylthio)-5-(pyridin-4-yl)-1,3,4-oxadiazole] | > 10 µM | > 10 µM | 93 to 94 °C | 0.39 ± 0.0365 µM |  |  | 
Fc1ccc2c(C3CCN(CCCSc4nnc(-c5ccncc5)o4)CC3)noc2c1 [Compound 26, 2-(3-(4-(6-fluorobenzo[d]isoxazol-3-yl)piperidin-1-yl)propylthio)-5-(pyridin-4-yl)-1,3,4-oxadiazole] |  |  |  |  | 0.26 ± 0.0321 µM | 0.0606 ± 0.0086 µM | 0.0592 ± 0.0076 µM
